What was measured:
[1] = test system: Trypanosoma brucei (BSF); experiment: Growth inhibition of cultured bloodstream form T. brucei; type: cell-based, Trypanosoma brucei (strain 427)
Description: Treatment of parasites with micromolar levels of these inhibitors could result in cell death within 4 h (Fig. 1).
[30] Growth inhibitory properties against cultured bloodstream form T. brucei were determined as described previously.[29] Experiments were performed in triplicate and data are presented as ±SD.

[2] = test system: HDAC (FDL_HELA); experiment: Histone deacetylase activity in HeLa cell lysates (fluorescent assay kit); type: biochemical, Human; conditions: lysed HeLa cells; read-out: HDAC (FDL_HELA) IC50 ± SD
Description: (§1) The compounds from the different structural subclasses were all active as HDAC inhibitors, measured in an assay of enzymes in HeLa cell lysates.[23,24] HeLa cells express multiple HDACs, including HDAC 1, 2, 3, 4, and 8.[25–27] […] To further characterise the compounds with respect to HDAC selectivity, we determined their inhibitory properties against recombinant expressed human HDACs (rhHDAC 1–4, 6–9).[28]
[24] Histone deacetylase activity was determined in lysed Human cervix epithelial cancer HeLa cells. To determine the IC50 of test compound a commercially available fluorescent assay kit was used employing an acetylated enzyme substrate.[23]

[3] = molecular target: rhHDAC 1 (Homo sapiens, UniProt Q13547); experiment: Inhibition of recombinant human HDAC isoforms; type: biochemical; conditions: mean ± SD, triplicate per plate, min two plates; read-out: ED50 rhHDAC 1
Excerpt: as §1

[4] = molecular target: rhHDAC 2 (Homo sapiens, UniProt Q92769); experiment: Inhibition of recombinant human HDAC isoforms; type: biochemical; conditions: mean ± SD, triplicate per plate, min two plates; read-out: ED50 rhHDAC 2
Excerpt: as §1

[5] = molecular target: rhHDAC 3 (Homo sapiens, UniProt O15379); experiment: Inhibition of recombinant human HDAC isoforms; type: biochemical; conditions: mean ± SD, triplicate per plate, min two plates; read-out: ED50 rhHDAC 3
Excerpt: as §1

[6] = molecular target: rhHDAC 4 (Homo sapiens, UniProt P56524); experiment: Inhibition of recombinant human HDAC isoforms; type: biochemical; conditions: mean ± SD, triplicate per plate, min two plates; read-out: ED50 rhHDAC 4
Excerpt: as §1

[7] = molecular target: T1, rhHDAC 6 (Homo sapiens, UniProt Q9UBN7); experiment: Inhibition of recombinant human HDAC isoforms; type: biochemical; conditions: mean ± SD, triplicate per plate, min two plates; read-out: ED50 rhHDAC 6
T1 sequence (Q9UBN7 1-1215): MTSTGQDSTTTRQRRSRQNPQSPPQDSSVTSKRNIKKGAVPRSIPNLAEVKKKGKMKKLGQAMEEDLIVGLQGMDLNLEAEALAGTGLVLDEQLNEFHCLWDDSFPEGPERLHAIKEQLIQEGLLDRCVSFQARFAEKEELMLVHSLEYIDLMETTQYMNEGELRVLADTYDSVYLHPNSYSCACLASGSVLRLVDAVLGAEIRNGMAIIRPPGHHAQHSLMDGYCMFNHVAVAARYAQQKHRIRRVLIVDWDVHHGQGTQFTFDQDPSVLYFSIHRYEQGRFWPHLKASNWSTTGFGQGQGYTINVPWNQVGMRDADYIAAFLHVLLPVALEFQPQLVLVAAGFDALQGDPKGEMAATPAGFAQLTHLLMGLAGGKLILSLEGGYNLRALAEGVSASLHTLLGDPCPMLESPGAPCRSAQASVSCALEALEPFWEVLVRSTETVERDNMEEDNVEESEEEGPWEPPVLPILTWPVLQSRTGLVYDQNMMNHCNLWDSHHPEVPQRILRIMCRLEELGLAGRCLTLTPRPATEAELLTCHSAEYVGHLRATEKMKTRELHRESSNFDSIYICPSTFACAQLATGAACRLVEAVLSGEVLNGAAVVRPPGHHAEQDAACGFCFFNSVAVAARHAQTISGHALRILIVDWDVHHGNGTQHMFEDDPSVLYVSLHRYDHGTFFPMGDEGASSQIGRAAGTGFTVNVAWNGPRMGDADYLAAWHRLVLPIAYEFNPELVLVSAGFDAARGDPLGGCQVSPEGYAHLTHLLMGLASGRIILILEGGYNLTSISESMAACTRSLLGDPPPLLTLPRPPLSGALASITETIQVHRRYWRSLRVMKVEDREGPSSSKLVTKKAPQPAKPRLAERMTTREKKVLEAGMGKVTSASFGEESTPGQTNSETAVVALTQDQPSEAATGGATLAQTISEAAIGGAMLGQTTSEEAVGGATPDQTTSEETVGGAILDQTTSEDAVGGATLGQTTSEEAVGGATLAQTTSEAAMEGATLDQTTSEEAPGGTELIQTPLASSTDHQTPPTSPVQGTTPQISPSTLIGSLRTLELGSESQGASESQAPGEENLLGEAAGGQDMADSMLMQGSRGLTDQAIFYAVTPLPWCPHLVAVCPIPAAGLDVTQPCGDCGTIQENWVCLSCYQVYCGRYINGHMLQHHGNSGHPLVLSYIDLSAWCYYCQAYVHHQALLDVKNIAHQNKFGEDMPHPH
Excerpt: as §1

[8] = molecular target: T2, rhHDAC 7 (Homo sapiens, UniProt Q8WUI4); experiment: Inhibition of recombinant human HDAC isoforms; type: biochemical; conditions: mean ± SD, triplicate per plate, min two plates; read-out: ED50 rhHDAC 7
T2 sequence (Q8WUI4 1-952): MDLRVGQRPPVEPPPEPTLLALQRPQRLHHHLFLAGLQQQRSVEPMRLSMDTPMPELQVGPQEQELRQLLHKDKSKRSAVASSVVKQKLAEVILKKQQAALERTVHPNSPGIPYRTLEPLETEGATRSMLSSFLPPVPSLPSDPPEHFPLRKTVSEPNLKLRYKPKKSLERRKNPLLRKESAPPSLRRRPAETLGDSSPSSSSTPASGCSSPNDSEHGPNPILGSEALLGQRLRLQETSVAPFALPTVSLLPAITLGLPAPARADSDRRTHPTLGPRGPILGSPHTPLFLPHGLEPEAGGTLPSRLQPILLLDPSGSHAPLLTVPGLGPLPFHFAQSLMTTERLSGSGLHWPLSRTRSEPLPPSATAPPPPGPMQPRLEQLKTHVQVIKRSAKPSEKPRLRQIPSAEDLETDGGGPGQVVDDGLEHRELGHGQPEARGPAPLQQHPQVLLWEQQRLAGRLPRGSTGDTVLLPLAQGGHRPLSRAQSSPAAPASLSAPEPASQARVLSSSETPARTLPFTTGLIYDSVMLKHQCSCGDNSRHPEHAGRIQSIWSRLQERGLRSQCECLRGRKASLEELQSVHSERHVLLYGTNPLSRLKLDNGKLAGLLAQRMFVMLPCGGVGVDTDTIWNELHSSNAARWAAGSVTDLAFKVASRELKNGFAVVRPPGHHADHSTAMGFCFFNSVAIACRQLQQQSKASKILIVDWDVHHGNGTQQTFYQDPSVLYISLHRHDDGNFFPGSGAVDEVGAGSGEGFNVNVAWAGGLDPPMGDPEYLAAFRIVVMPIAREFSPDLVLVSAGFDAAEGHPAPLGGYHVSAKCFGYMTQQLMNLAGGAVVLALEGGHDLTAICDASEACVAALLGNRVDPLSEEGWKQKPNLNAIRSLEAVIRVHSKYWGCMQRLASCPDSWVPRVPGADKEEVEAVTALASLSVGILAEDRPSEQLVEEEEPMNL
Excerpt: as §1

[9] = molecular target: T3, rhHDAC 8 (Homo sapiens, UniProt Q9BY41); experiment: Inhibition of recombinant human HDAC isoforms; type: biochemical; conditions: mean ± SD, triplicate per plate, min two plates; read-out: ED50 rhHDAC 8
T3 sequence (Q9BY41 1-377): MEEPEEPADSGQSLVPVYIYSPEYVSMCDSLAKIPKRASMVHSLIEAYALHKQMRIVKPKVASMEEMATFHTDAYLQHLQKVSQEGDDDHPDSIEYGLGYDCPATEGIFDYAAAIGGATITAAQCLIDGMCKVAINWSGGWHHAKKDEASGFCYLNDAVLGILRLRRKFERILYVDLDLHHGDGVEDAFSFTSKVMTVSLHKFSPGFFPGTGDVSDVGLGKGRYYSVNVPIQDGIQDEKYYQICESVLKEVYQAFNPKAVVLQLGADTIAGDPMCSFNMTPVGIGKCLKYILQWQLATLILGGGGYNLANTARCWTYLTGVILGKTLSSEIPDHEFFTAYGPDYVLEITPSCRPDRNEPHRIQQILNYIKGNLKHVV
Excerpt: as §1

[10] = molecular target: rhHDAC 9 (Homo sapiens, UniProt Q9UKV0); experiment: Inhibition of recombinant human HDAC isoforms; type: biochemical; conditions: mean ± SD, triplicate per plate, min two plates; read-out: ED50 rhHDAC 9
Excerpt: as §1

[11] = test system: Trypanosoma brucei (BSF); design: method as in PMID 14726511; conditions: cited from earlier work
[12] = test system: DAC1; design: method as in PMID 20624217; conditions: cited from earlier work
[13] = test system: DAC3; design: method as in PMID 20624217; conditions: cited from earlier work

rhHDAC 2, sequence (Q92769 whole entry, canonical isoform): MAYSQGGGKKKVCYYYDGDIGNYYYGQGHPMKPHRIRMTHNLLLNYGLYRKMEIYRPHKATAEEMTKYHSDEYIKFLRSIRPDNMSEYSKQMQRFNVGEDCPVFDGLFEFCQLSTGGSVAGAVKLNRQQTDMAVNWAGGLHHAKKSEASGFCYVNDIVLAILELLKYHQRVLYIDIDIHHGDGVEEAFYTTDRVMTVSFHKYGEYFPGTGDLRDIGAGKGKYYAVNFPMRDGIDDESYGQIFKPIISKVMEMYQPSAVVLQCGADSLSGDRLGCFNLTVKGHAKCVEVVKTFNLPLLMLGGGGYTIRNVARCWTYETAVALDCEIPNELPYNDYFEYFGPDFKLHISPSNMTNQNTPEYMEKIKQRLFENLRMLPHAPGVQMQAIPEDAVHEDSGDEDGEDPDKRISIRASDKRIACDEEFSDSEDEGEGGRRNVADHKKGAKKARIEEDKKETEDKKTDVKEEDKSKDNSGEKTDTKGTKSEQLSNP
rhHDAC 3, sequence (O15379 whole entry, canonical isoform): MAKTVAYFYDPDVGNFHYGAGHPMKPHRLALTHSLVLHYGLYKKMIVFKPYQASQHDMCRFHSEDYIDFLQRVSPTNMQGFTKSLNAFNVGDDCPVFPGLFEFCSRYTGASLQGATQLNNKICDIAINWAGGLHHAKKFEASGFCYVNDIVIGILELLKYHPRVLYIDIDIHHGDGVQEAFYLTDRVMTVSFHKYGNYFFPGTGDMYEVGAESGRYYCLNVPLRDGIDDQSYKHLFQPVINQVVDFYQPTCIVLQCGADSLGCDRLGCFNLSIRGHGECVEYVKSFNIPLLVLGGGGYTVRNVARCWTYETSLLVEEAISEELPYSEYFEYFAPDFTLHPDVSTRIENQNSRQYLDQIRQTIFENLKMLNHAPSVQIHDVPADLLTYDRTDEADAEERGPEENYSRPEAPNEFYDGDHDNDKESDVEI
rhHDAC 3, sequence (Q9Y618 395-489 partner limits assumed): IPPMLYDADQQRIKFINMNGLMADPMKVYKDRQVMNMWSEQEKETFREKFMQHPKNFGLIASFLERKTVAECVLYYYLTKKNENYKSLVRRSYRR
rhHDAC 1, sequence (Q13547 whole entry, canonical isoform): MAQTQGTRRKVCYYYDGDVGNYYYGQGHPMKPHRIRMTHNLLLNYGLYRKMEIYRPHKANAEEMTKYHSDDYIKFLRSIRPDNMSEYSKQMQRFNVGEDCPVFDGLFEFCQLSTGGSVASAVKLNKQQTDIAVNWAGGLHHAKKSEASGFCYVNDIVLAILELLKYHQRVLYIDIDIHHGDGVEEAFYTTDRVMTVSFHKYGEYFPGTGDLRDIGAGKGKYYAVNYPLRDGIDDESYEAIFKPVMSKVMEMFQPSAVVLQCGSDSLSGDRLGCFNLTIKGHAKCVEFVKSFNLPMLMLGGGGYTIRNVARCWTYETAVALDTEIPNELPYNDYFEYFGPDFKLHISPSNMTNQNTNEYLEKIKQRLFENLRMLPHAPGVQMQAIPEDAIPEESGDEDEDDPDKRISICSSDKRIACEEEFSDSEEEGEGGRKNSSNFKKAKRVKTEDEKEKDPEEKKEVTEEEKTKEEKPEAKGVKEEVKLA
rhHDAC 4, sequence (P56524 whole entry, canonical isoform): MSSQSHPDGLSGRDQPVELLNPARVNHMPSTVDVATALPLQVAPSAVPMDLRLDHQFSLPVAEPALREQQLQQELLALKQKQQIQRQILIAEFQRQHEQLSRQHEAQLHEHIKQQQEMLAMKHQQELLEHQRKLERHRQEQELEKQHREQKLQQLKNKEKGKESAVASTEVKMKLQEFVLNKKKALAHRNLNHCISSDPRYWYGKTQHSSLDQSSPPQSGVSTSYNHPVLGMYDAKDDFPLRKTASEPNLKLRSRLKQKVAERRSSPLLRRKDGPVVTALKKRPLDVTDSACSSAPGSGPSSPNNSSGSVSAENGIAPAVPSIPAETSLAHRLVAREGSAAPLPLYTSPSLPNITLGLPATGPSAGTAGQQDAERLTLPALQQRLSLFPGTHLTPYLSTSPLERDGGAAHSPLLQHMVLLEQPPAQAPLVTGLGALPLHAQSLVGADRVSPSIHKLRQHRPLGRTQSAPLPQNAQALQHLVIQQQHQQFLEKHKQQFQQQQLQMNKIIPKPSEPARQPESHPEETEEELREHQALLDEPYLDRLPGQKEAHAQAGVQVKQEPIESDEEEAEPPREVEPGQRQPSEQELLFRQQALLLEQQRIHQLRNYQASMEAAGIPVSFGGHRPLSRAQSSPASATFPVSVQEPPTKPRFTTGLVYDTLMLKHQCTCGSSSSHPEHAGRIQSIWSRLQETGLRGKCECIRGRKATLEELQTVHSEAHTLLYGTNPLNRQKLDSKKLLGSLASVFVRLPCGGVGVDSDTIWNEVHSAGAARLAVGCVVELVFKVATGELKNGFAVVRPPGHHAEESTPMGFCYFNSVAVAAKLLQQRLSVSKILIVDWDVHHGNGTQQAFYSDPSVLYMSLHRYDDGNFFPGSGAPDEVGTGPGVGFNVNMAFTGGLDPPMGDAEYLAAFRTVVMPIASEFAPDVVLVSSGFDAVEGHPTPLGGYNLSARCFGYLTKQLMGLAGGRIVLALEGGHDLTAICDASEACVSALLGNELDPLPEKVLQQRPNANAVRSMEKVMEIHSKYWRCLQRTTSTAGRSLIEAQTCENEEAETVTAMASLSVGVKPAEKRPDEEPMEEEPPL
rhHDAC 9, sequence (Q9UKV0 whole entry, canonical isoform): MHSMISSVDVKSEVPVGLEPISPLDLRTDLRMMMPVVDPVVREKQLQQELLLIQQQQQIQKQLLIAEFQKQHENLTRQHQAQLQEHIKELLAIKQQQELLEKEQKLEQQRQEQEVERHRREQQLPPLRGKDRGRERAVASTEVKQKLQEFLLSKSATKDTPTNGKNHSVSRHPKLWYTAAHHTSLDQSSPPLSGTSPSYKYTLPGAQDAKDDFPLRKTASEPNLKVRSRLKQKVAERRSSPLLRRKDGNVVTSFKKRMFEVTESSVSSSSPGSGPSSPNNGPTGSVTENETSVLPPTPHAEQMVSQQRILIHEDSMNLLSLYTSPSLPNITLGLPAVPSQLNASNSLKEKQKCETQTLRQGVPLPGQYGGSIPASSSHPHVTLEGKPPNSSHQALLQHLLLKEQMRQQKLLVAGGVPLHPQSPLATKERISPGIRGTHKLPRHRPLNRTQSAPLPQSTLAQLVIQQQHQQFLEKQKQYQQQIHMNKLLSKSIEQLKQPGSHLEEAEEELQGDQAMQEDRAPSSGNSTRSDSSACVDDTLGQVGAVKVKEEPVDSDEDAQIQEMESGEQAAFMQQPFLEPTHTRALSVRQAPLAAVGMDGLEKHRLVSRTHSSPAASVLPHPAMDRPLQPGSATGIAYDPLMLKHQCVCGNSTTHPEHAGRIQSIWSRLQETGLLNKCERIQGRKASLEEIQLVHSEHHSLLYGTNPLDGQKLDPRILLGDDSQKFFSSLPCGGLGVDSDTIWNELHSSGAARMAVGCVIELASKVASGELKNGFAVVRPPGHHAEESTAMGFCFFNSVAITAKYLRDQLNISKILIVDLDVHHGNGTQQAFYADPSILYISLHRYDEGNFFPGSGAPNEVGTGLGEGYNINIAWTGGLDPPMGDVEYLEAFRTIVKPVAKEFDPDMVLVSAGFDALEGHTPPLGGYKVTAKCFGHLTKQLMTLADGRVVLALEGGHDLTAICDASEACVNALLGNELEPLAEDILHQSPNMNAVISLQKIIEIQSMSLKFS

SMILES | IC50 ([1]; Trypanosoma brucei, cultured bloodstream form, strain 427, triplicate, read-out: Trypanosoma brucei (BSF) IC50 ± SD) [nM] | IC90 ([1]; Trypanosoma brucei, cultured bloodstream form, strain 427, triplicate, read-out: Trypanosoma brucei (BSF) IC90 ± SD) [nM] | fold less active against T. brucei ([1]; relative to heterocyclic compounds 9 and 16) | IC50 [2] [nM] | IC50 [3] [nM] | IC50 [4] [nM] | IC50 [5] [nM] | IC50 [6] [nM] | IC50 [7] [nM] | IC50 [8] [nM] | IC50 [9] [nM] | IC50 [10] [nM] | growth of bloodstream form T. brucei [11] | inhibition of DAC1 activity [12] | inhibition of DAC3 activity [13]
O=C(/C=C/c1nc2ccccc2o1)NO [Compound 20] | 1540 ± 60 | 2180 ± 180 | 5- to 10 fold | 48 ± 28 | 134 ± 6 | 554 ± 44 | 97 ± 0.6 | 373 ± 73 | 68 ± 13 | 286 ± 8 | 573 ± 30 | 278 ± 65 | – | – | –
CC(/C=C/C(=O)NO)=C\[C@@H](C)C(=O)c1ccc(N(C)C)cc1 [Trichostatin A] | – | – | – | – | – | – | – | – | – | – | – | – | suppresses growth | inhibitor | inhibitor
